From patent US7683078B2, “Arylsulfonamide derivatives as C-Jun-N-Terminal Kinases (JNK's) inhibitors” (Laboratoires Serono S.A., priority 2001, dated 2010)

Target: JNK3 (Homo sapiens, UniProt P53779)
Assay: JNK3 in vitro assay (33P incorporation into c-jun, SPA)
Assay type: biochemical
Conditions: recombinant pre-activated GST-JNK3, biotinylated GST-c-Jun, 2 μM 33γ-ATP, 120 min R.T.; read-out: inhibition (IC50) with regard to JNK3
Experimental: The phosphorylation of c-jun by JNK2 or JNK3 can be followed by monitoring the incorporation of ^33P into c-jun following the protocol below. The inhibitory activity of the compounds according to formula I, towards c-jun phosphorylation through JNK, is determined by calculating phosphorylation activity in the presence or absence of compounds according to formula I.
JNK3 and/or -2 assays are performed in 96 well MTT plates: incubation of 0.5 μg of recombinant, pre-activated GST-JNK3 or GST-JNK2 with 1 μg of recombinant, biotinylated GST-c-Jun and 2 μM ^33γ-ATP (2 nCi/μl), in the presence or absence of compounds according to formula I and in a reaction volume of 50 μl containing 50 mM Tris-HCl, pH 8.0; 10 mM MgCl2; 1 mM Dithiothreitol, and 100 μM Na3VO4. The incubation is performed for 120 min. at R.T and stopped upon addition of 200 μl of a solution containing 250 μg of Streptavidine-coated SPA beads (Amersham, Inc.)*, 5 mM EDTA, 0.1% Triton-X-100 and 50 μM ATP, in phosphate saline buffer. After incubation for 60 minutes at RT, beads are sedimented by centrifugation at 1500×g for 5 minutes, resuspended in 200 μl of PBS containing 5 mM EDTA, 0.1% Triton X-100 and 50 μM ATP and the radioactivity measured in a scintillation β counter, following sedimentation of the beads as described above. […]

Chain of JNK3 (P53779 whole entry, species assumed): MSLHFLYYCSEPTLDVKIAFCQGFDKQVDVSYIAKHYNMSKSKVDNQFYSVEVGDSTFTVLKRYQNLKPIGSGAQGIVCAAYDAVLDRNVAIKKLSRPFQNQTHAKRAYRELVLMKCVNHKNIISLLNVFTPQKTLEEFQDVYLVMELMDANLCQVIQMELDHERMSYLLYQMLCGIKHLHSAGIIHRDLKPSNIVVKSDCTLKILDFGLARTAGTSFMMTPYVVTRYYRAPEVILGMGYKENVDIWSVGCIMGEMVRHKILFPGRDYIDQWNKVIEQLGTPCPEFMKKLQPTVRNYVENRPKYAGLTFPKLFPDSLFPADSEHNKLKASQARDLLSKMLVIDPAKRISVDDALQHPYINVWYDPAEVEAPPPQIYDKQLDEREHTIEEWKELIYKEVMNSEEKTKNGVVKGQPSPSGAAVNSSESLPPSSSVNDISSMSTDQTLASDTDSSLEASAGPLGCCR

IC50 [nM]	Structure (SMILES)
188	CN(CCCNCc1ccc(C(F)(F)F)cc1)S(=O)(=O)c1ccc(CNC(=O)c2ccc(Cl)cc2)s1 [Compound 13, 4-Chloro-N-(5-{methyl-[3-(4-trifluoromethyl-benzylamino)-propyl]-sulfamoyl}-thiophen-2-ylmethyl)-benzamide]
184	CCCCCCNCCCN(C)S(=O)(=O)c1ccc(CNC(=O)c2ccc(Cl)cc2)s1 [Compound 14, 4-Chloro-N-{5-[(3-hexylamino-propyl)-methyl-sulfamoyl]-thiophen-2-ylmethyl}-benzamide]
